The target in one assay is Histamine H2 receptor (Homo sapiens, UniProt P25021). The experiment in a line: Binding affinity towards Histamine H2 receptor from human membranes.
The next assay concerns the target Histamine H3 receptor (Rattus norvegicus, UniProt Q9QYN8). In words: Binding affinity towards Histamine H3 receptor of rat cortical membranes.
In the next assay the target is Histamine H1 receptor (Homo sapiens, UniProt P35367). The experiment in a line: Binding affinity towards Histamine H1 receptor of human membranes.
Histamine H1 receptor, sequence (P35367 whole entry): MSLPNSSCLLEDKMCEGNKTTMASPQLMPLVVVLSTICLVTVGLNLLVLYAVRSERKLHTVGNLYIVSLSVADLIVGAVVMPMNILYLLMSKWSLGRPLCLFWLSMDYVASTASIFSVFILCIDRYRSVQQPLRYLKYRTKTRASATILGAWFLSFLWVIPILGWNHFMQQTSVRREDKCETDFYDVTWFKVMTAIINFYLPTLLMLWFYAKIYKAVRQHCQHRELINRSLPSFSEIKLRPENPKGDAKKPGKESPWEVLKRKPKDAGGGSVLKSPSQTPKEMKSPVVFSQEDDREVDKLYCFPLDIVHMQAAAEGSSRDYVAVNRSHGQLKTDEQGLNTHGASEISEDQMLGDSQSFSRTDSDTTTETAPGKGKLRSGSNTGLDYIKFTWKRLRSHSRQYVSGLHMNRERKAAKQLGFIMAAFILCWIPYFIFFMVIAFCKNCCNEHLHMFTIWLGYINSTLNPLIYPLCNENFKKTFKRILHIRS

Histamine H2 receptor, sequence (P25021 whole entry): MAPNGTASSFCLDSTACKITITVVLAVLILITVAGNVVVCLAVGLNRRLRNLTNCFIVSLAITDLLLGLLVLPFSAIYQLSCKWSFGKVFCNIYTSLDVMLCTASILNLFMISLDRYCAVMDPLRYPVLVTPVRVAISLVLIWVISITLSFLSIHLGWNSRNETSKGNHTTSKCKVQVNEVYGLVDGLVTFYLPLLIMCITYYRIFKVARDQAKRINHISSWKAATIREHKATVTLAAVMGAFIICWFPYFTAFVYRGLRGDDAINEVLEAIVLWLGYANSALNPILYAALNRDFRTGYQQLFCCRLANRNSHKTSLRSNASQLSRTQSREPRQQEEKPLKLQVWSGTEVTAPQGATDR
Histamine H3 receptor, sequence (Q9QYN8 whole entry): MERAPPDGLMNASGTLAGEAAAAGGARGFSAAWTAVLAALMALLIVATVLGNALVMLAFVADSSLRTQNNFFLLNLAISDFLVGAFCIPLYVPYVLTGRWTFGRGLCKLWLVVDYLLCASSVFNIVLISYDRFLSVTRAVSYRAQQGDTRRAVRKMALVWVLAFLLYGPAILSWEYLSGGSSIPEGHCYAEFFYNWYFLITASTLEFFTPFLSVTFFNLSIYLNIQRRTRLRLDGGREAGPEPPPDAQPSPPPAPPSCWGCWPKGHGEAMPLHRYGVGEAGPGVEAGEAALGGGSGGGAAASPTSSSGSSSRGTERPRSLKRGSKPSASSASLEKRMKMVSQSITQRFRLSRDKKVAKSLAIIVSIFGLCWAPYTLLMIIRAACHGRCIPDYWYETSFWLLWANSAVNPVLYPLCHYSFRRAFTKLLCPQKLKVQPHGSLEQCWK

For `C[C@H](CN)C(=O)N1CCN(CCCOc2ccc(C(=O)C3CC3)cc2)CC1`, the Ki was 10.7 µM at Histamine H2 receptor, 0.00891 µM at Histamine H3 receptor and 1.74 µM at Histamine H1 receptor.

As to `CC(C)(C)OC(=O)N[C@H](Cc1ccccc1)C(=O)N1CCN(CCCOc2ccc(C(=O)C3CC3)cc2)CC1`, the Ki on Histamine H2 receptor was 10 µM; at Histamine H3 receptor, 0.00398 µM; on Histamine H1 receptor, 5.5 µM.

For the compound `CCCCCC(=O)c1ccc(OCCCN2CCN(C(=O)[C@@H](N)Cc3ccncc3)CC2)cc1`, the Ki at Histamine H2 receptor was 34.7 µM; at Histamine H3 receptor, 0.0102 µM; at Histamine H1 receptor, 2.29 µM.

Turning to `CC(C)N[C@H](C)C(=O)N1CCN(CCCOc2ccc(C(=O)C3CC3)cc2)CC1`, the Ki on Histamine H2 receptor is 50.1 µM; on Histamine H3 receptor, 0.00871 µM; at Histamine H1 receptor, 46.8 µM.

For the compound `O=C1C[C@@H](N2CCN(CCCOc3ccc(C(=O)C4CC4)cc3)CC2)N1`, the Ki at Histamine H2 receptor was 10 µM; at Histamine H3 receptor, 0.00437 µM; at Histamine H1 receptor, 10 µM.

On to `CCCCCC(=O)c1ccc(OCCCN2CCN(C(=O)[C@H](N)CO)CC2)cc1`, for which the Ki at Histamine H2 receptor is 34.7 µM; at Histamine H3 receptor it was 0.00708 µM; at Histamine H1 receptor it was 46.8 µM.

Consider `CCCCCC(=O)c1ccc(OCCCN2CCN(C(=O)[C@@H](N)CC(C)C)CC2)cc1`, for which the Ki on Histamine H2 receptor is 16.6 µM; at Histamine H3 receptor, 0.17 µM; at Histamine H1 receptor it was 9.77 µM.

Turning to `CN[C@H](Cc1ccccc1)C(=O)N1CCN(CCCOc2ccc(C(=O)C3CC3)cc2)CC1`, the Ki was 17.8 µM at Histamine H2 receptor, 0.0437 µM at Histamine H3 receptor and 13.5 µM on Histamine H1 receptor.

In the case of `CCCCCC(=O)c1ccc(OCCCN2CCN(C(=O)[C@H](N)CC(C)C)CC2)cc1`, the Ki at Histamine H2 receptor was 14.1 µM; on Histamine H3 receptor, 0.0617 µM; at Histamine H1 receptor, 14.5 µM.

As to `CC[C@@H](N)C(=O)N1CCN(CCCOc2ccc(C(=O)C3CC3)cc2)CC1` (stereo in doubt; 57), the Ki on Histamine H2 receptor was 11 µM; on Histamine H3 receptor, 0.00195 µM; at Histamine H1 receptor, 2.09 µM.

With `N[C@H](CCc1ccccc1)C(=O)N1CCN(CCCOc2ccc(C(=O)C3CC3)cc2)CC1`, the Ki is 10 µM at Histamine H2 receptor, 0.00457 µM at Histamine H3 receptor and 10 µM at Histamine H1 receptor.

Regarding `C[C@@H](NC(=O)OC(C)(C)C)C(=O)N1CCN(CCCOc2ccc(C(=O)C3CC3)cc2)CC1`, the Ki was 83.2 µM at Histamine H2 receptor and 8.13 µM at Histamine H1 receptor.

For `N[C@H](Cc1ccsc1)C(=O)N1CCN(CCCOc2ccc(C(=O)C3CC3)cc2)CC1`, the inhibition constant (Ki) was 46.8 µM at Histamine H2 receptor, 0.0229 µM on Histamine H3 receptor and 9.77 µM on Histamine H1 receptor.

Take `O=C(c1ccc(OCCCN2CCN(C(=O)[C@H]3CCN3)CC2)cc1)C1CC1`: the Ki was 14.1 µM on Histamine H2 receptor, 0.00132 µM on Histamine H3 receptor and 12.6 µM on Histamine H1 receptor.

For `C[C@@H](CN)C(=O)N1CCN(CCCOc2ccc(C(=O)C3CC3)cc2)CC1`, the inhibition constant (Ki) was 10.2 µM at Histamine H2 receptor, 0.00646 µM at Histamine H3 receptor and 1.51 µM at Histamine H1 receptor.

For the compound `O=C(c1ccc(OCCCN2CCN(C(=O)C[C@H]3CCCN3)CC2)cc1)C1CC1`, the Ki on Histamine H2 receptor is 89.1 µM; on Histamine H1 receptor it was 95.5 µM.

`N[C@H](Cc1nccs1)C(=O)N1CCN(CCCOc2ccc(C(=O)C3CC3)cc2)CC1`: the Ki at Histamine H2 receptor is 97.7 µM; on Histamine H3 receptor, 0.00575 µM; at Histamine H1 receptor, 100 µM.

Take `O=C(c1ccc(OCCCN2CCN(C(=O)[C@@H]3CCN3)CC2)cc1)C1CC1`: the results for the Ki on Histamine H2 receptor, at Histamine H3 receptor and at Histamine H1 receptor were 12.3 µM, 0.0129 µM and 10 µM, respectively.

Regarding `N[C@H](Cc1c[nH]cn1)C(=O)N1CCN(CCCOc2ccc(C(=O)C3CC3)cc2)CC1`, the Ki at Histamine H2 receptor is 89.1 µM; on Histamine H3 receptor it was 0.00457 µM; on Histamine H1 receptor, 95.5 µM.

With `N[C@H](Cc1ccc(-c2ccccc2)cc1)C(=O)N1CCN(CCCOc2ccc(C(=O)C3CC3)cc2)CC1`, the Ki at Histamine H2 receptor was 20.4 µM; on Histamine H3 receptor it was 0.132 µM; on Histamine H1 receptor, 12 µM.

Consider `CNCC(=O)N1CCN(CCCOc2ccc(C(=O)C3CC3)cc2)CC1`, for which the inhibitory constant (Ki) on Histamine H2 receptor was 79.4 µM; at Histamine H3 receptor, 0.00229 µM; on Histamine H1 receptor, 100 µM.

`CCCCCC(=O)c1ccc(OCCCN2CCN(C(=O)[C@@H](C)N)CC2)cc1`: the Ki was 40.7 µM at Histamine H2 receptor, 0.00191 µM at Histamine H3 receptor and 35.5 µM at Histamine H1 receptor.

For `CCCCCC(=O)c1ccc(OCCCN2CCN(C(=O)[C@@H](C)NC(=O)OC(C)(C)C)CC2)cc1`, the Ki at Histamine H2 receptor was 10.7 µM; on Histamine H3 receptor, 0.00123 µM; on Histamine H1 receptor, 6.76 µM.

As for `CCCCCC(=O)c1ccc(OCCCN2CCN(C(=O)[C@@H](N)C(C)C)CC2)cc1`, the Ki is 38 µM at Histamine H2 receptor, 0.0794 µM at Histamine H3 receptor and 19.1 µM at Histamine H1 receptor.

Consider `N#CC[C@@H](N)C(=O)N1CCN(CCCOc2ccc(C(=O)C3CC3)cc2)CC1`, for which the values for the Ki on Histamine H2 receptor, on Histamine H3 receptor and at Histamine H1 receptor were 72.4 µM, 0.0288 µM and 45.7 µM, respectively.

As for `CCCCCC(=O)c1ccc(OCCCN2CCN(C(=O)[C@@H](CO)NC(=O)OC(C)(C)C)CC2)cc1`, the Ki on Histamine H2 receptor was 22.9 µM; on Histamine H3 receptor, 0.0024 µM; on Histamine H1 receptor it was 17 µM.

Regarding `O=C1C[C@H](N2CCN(CCCOc3ccc(C(=O)C4CC4)cc3)CC2)N1`, the Ki at Histamine H2 receptor is 26.9 µM; on Histamine H3 receptor it was 0.0427 µM; at Histamine H1 receptor, 21.9 µM.

Turning to `CC(C)(C)OC(=O)N1CCC[C@@H]1C(=O)N1CCN(CCCOc2ccc(C(=O)C3CC3)cc2)CC1`, the Ki on Histamine H2 receptor was 50.1 µM; on Histamine H3 receptor, 0.12 µM; on Histamine H1 receptor it was 46.8 µM.

In the case of `CC(C)(C)C[C@@H](N)C(=O)N1CCN(CCCOc2ccc(C(=O)C3CC3)cc2)CC1`, the Ki on Histamine H1 receptor is 10.2 µM.

Consider `N[C@H](CC1CCCCC1)C(=O)N1CCN(CCCOc2ccc(C(=O)C3CC3)cc2)CC1`, for which the inhibition constant Ki on Histamine H2 receptor was 20.4 µM; at Histamine H3 receptor it was 0.162 µM; at Histamine H1 receptor, 14.5 µM.

Take `CC(C)(C)[C@@H](N)C(=O)N1CCN(CCCOc2ccc(C(=O)C3CC3)cc2)CC1`: the Ki at Histamine H2 receptor is 19.1 µM; on Histamine H3 receptor it was 0.0525 µM; at Histamine H1 receptor it was 21.9 µM.

For the compound `CC[C@@H](N)C(=O)N1CCN(CCCOc2ccc(C(=O)C3CC3)cc2)CC1` (stereo in doubt; 43), the Ki is 100 µM at Histamine H2 receptor, 0.00158 µM at Histamine H3 receptor and 70.8 µM on Histamine H1 receptor.

Take `CCC[C@@H](N)C(=O)N1CCN(CCCOc2ccc(C(=O)C3CC3)cc2)CC1`: the Ki at Histamine H2 receptor was 60.3 µM; at Histamine H3 receptor, 0.00398 µM; on Histamine H1 receptor, 46.8 µM.

Consider `CCCCCC(=O)c1ccc(OCCCN2CCN(C(=O)[C@H](Cc3ccncc3)NC(=O)OC(C)(C)C)CC2)cc1`, for which the Ki was 14.8 µM on Histamine H2 receptor, 0.0537 µM on Histamine H3 receptor and 9.33 µM at Histamine H1 receptor.

For `N[C@H](Cc1cc2ccccc2s1)C(=O)N1CCN(CCCOc2ccc(C(=O)C3CC3)cc2)CC1`, the Ki was 15.1 µM at Histamine H2 receptor, 0.288 µM on Histamine H3 receptor and 4.37 µM at Histamine H1 receptor.

For the compound `N[C@H](Cc1cccc2ccccc12)C(=O)N1CCN(CCCOc2ccc(C(=O)C3CC3)cc2)CC1`, the Ki was 20.9 µM at Histamine H2 receptor, 0.214 µM on Histamine H3 receptor and 2 µM on Histamine H1 receptor.

For the compound `C[C@H](N)C(=O)N1CCN(CCCOc2ccc(C(=O)C3CC3)cc2)CC1`, the Ki was 41.7 µM at Histamine H2 receptor, 0.0204 µM at Histamine H3 receptor and 53.7 µM at Histamine H1 receptor.

`CC(C)(C)OC[C@@H](N)C(=O)N1CCN(CCCOc2ccc(C(=O)C3CC3)cc2)CC1`: the Ki at Histamine H2 receptor was 45.7 µM; on Histamine H3 receptor it was 0.00851 µM; on Histamine H1 receptor it was 16.2 µM.

With `CN[C@@H](C(=O)N1CCN(CCCOc2ccc(C(=O)C3CC3)cc2)CC1)C(C)C`, the results for the Ki on Histamine H2 receptor, on Histamine H3 receptor and on Histamine H1 receptor were 49 µM, 0.0759 µM and 34.7 µM, respectively.

`CCCCCC(=O)c1ccc(OCCCN2CCN(C(=O)[C@H](CC(C)C)NC(=O)OC(C)(C)C)CC2)cc1`: the Ki is 3.47 µM at Histamine H2 receptor, 0.112 µM on Histamine H3 receptor and 8.13 µM at Histamine H1 receptor.

`CCCCCC(=O)c1ccc(OCCCN2CCN(C(=O)[C@H](NC(=O)OC(C)(C)C)C(C)C)CC2)cc1`: the Ki on Histamine H2 receptor is 13.5 µM; at Histamine H3 receptor, 0.0148 µM; on Histamine H1 receptor it was 3.31 µM.

Take `CCCCCC(=O)c1ccc(OCCCN2CCN(C(=O)[C@H](N)C(C)C)CC2)cc1`: the Ki on Histamine H2 receptor was 31.6 µM; on Histamine H3 receptor, 0.017 µM; at Histamine H1 receptor it was 16.6 µM.

Turning to `CCCCCC(=O)c1ccc(OCCCN2CCN(C(=O)[C@@H](CC(C)C)NC(=O)OC(C)(C)C)CC2)cc1`, the results for the Ki on Histamine H2 receptor, at Histamine H3 receptor and on Histamine H1 receptor were 4.47 µM, 0.0145 µM and 4.68 µM, respectively.

With `CCCCCC(=O)c1ccc(OCCCN2CCN(C(=O)[C@H](N)Cc3ccncc3)CC2)cc1`, the Ki on Histamine H2 receptor is 37.2 µM; on Histamine H3 receptor it was 0.00912 µM; on Histamine H1 receptor, 3.31 µM.

Consider `N[C@@H](C(=O)N1CCN(CCCOc2ccc(C(=O)C3CC3)cc2)CC1)C1Cc2ccccc2C1`, for which the results for the inhibition constant (Ki) at Histamine H2 receptor, on Histamine H3 receptor and at Histamine H1 receptor were 19.1 µM, 0.0263 µM and 10.7 µM, respectively.

For the compound `N[C@H](Cc1ccc(O)cc1)C(=O)N1CCN(CCCOc2ccc(C(=O)C3CC3)cc2)CC1`, the Ki at Histamine H2 receptor is 33.1 µM; on Histamine H3 receptor it was 0.0302 µM; on Histamine H1 receptor, 9.77 µM.

For the compound `N[C@@H](C(=O)N1CCN(CCCOc2ccc(C(=O)C3CC3)cc2)CC1)c1ccccc1`, the inhibitory constant (Ki) is 24.5 µM at Histamine H2 receptor, 0.0275 µM on Histamine H3 receptor and 4.57 µM at Histamine H1 receptor.

`CCCCCC(=O)c1ccc(OCCCN2CCN(C(=O)[C@@H](Cc3ccncc3)NC(=O)OC(C)(C)C)CC2)cc1`: the Ki at Histamine H2 receptor was 12 µM; on Histamine H3 receptor, 0.0234 µM; on Histamine H1 receptor, 17 µM.

For the compound `CC[C@H](N)C(=O)N1CCN(CCCOc2ccc(C(=O)C3CC3)cc2)CC1`, the results for the inhibition constant (Ki) at Histamine H2 receptor, on Histamine H3 receptor and at Histamine H1 receptor were 10.7 µM, 0.00251 µM and 4.68 µM, respectively.

As for `N[C@H](Cc1ccc(F)cc1)C(=O)N1CCN(CCCOc2ccc(C(=O)C3CC3)cc2)CC1`, the results for the inhibition constant (Ki) at Histamine H2 receptor, at Histamine H3 receptor and at Histamine H1 receptor were 39.8 µM, 0.0295 µM and 9.33 µM, respectively.

Regarding `CCCCCC(=O)c1ccc(OCCCN2CCN(C(=O)[C@@H](NC(=O)OC(C)(C)C)C(C)C)CC2)cc1`, the Ki is 12.6 µM at Histamine H2 receptor, 0.0977 µM on Histamine H3 receptor and 10.7 µM on Histamine H1 receptor.

Turning to `O=C(c1ccc(OCCCN2CCN(C(=O)[C@H]3CCCN3)CC2)cc1)C1CC1`, the Ki was 53.7 µM at Histamine H2 receptor, 0.0302 µM on Histamine H3 receptor and 37.2 µM on Histamine H1 receptor.

Source of the values: ChEMBL document CHEMBL1135199, “Structure-activity relationships of non-imidazole H(3) receptor ligands. Part 2: binding preference for D-amino acids motifs” (Bioorg Med Chem Lett, 2002).
